# Experimental data published in patent publication US8129424B2, “Indole derivatives as histamine 3 receptor inhibitors for the treatment of cognitive and sleep disorders, obesity and other CNS disorders” (Athersys, Inc., priority 2005, dated 2012).
# Target: T1, human histamine H3 receptor (Homo sapiens, UniProt Q9Y5N1)
# T1 construct: expressed in transfected cells; host or cells: HT1080-Gqαi5 cells (human), pFG8-HH3 RAGE vector integrated; methotrexate-amplified clone RAGE-H3
# Assay: Radioligand competition binding assay with [125I]iodoproxyfan on RAGE-H3 cell membranes
# Settings: [125I]iodoproxyfan competition binding, apparent Ki by Cheng-Prussof equation
# Protocol: Representative compounds of the present invention that were prepared by the procedures of Examples 1-41 were evaluated in binding assays against cells expressing human H3 receptor by the following procedure.
# The human histamine H3 receptor was stably expressed in HT1080 cells containing the chimeric G-protein, Gq[…]i5 (Coward et al., Anal Biochem 1999; 270:242-8). HT1080-Gqαi5 cells were grown in alpha-modified MEM containing 10% fetal bovine serum and 7 μg/ml blasticidin at 37° C. in 5% CO2/95% atmosphere. Cells (4.8×10^9) were irradiated with 50 rads from a ^137Cs source and the pFG8-HH3 RAGE (Random Activation of Gene Expression; see Harrington et al., Nature Biotechnology. 2001; 19:440-45) vector was subsequently integrated into the cells via electroporation (250V, 600 μF, 50Ω). The RAGE vector pFG8-HH3 contained cDNA sequence coding for the first exon (83 amino acids) of human H3 receptor. After electroporation, cells were plated in T75 flasks and grown in alpha-modified MEM. The culture medium was replaced 48 hours after electroporation with alpha-modified MEM, 10% fetal bovine serum, 500 μg/ml hygromycin B and 3 μg/ml puromycin. Medium was replaced every four days during cell expansion. To identify RAGE activated cells expressing the H3 receptor, pools of approximately 10,000 colonies (5×10^7-1.5×10^8 cells total) were screened by PCR for the desired gene product (using primers specific to the RAGE vector and exon 2 of the H3 receptor). […] Positive 100 cells/well pools were identified by PCR, confirmed by sequencing, and subsequently subcloned to 0.8 cells/well. Once clones expressing the H3 receptor were identified by PCR analysis, assays (FLIPR or radioligand binding) were performed to confirm that the activated gene produced functional protein. The protein expression in the initial clones obtained from the RAGE library was increased by growth in the presence of methotrexate. Since the integrated RAGE vector contains the DHFR gene, such treatment selects for cells that have amplified the genetic locus containing the RAGE insert. Subclones obtained after methotrexate amplification were tested for functional activity in FLIPR assays to identify the clone that was most suitable for HTS. The final HT1080-Gqαi5 RAGE clone (RAGE-H3) expressing the human histamine H3 receptor was grown in alpha-modified MEM containing 10% fetal bovine serum, 3 μg/ml puromycin, 500 μg/ml hygromycin B, 3.2 μM methotrexate at 37° C. in 5% CO2/95% atmosphere.
# RAGE-H3 cells (10^9) were washed twice with cold PBS, scraped off the plates, and centrifuged at 1000×g for 5 minutes. Cells were resuspended in ice-cold 10 mM Tris HCl, pH 7.4, containing 5 mM EDTA and protease inhibitor cocktail tablets (Roche Molecular Biochemicals). After incubating on ice for 10 minutes, the cells were homogenized with a dounce homogenizer or a polytron tissue grinder, and centrifuged at 1000×g for 10 minutes at 4° C. The resulting supernatant was centrifuged at 32,000×g for 30 minutes at 4° C. The membrane pellets were resuspended in 50 mM Tris HCl, pH 7.4, and stored at −80° C. until use. Protein concentration was determined by the Bradford method (Bio-Rad Laboratories, CA).
# Binding assays were carried out in 96-well polypropylene plates in 50 mM Tris HCl, pH 7.4, containing 1 mM EDTA. Reaction mixtures contained 100 μl of membrane suspension, 50 of 4% DMSO, and 50 μl of increasing amounts of [^125I]iodoproxyfan (final concentration 0.0005-1.8 nM for human H3 receptor saturation binding assay). Nonspecific binding was defined by adding 10 μM clobenpropit to the reaction mixtures. Competition binding assays were performed in a reaction mixture containing 100 μl of membrane suspension (˜20 μg of protein/well), 50 μl of [^125I]iodoproxyfan (final concentration of ˜0.15 nM) and 50 μl of test compound. Compounds were dissolved in DMSO and then diluted with 4% DMSO; the final maximal DMSO concentration in the binding assays was 1%. […]
# T1 sequence (Q9Y5N1 whole entry): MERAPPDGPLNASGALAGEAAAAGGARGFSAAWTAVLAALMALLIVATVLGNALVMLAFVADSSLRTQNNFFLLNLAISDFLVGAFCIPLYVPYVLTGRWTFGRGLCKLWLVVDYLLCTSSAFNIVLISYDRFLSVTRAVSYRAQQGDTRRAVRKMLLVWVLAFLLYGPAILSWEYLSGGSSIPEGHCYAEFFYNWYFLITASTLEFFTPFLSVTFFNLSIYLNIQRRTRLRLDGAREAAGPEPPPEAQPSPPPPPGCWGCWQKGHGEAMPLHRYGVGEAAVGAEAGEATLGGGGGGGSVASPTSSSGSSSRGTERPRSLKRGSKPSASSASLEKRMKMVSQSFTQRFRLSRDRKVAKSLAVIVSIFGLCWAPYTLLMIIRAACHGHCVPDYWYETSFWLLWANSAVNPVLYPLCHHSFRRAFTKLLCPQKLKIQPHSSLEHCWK
row,Ki [µM],Structure (SMILES)
1,< 0.01,"CCOC(=O)c1cc2ccccc2n1-c1ccc(OCCCN2CCCC2)cc1 [Example 30, 1-[4-(3-Pyrrolidin-1-ylpropoxy)phenyl]-1H-indole-2-carboxylic acid ethyl ester]"
2,< 0.1,"Cc1ccc2c(c1)cc(C)n2-c1ccc(OCCCN2CCCC2)cc1 [Example 11, 2,5-Dimethyl-1-[4-(3-pyrrolidin-1-ylpropoxy)phenyl]-1H-indole]"
3,< 0.1,"Clc1ccc2ccn(-c3ccc(OCCCN4CCCC4)cc3)c2c1 [Example 12, 6-Chloro-1-[4-(3-pyrrolidin-1-ylpropoxy)phenyl]-1H-indole]"
4,< 0.01,"COc1ccc2c(c1)cc(CO)n2-c1ccc(OCCCN2CCCC2)cc1 [Example 36, {5-Methoxy-1-[4-(3-pyrrolidin-1-ylpropoxy)phenyl]-1H-indol-2-yl}methanol]"
5,< 0.01,"c1ccc2c(c1)cc(COC1CCCC1)n2-c1ccc(OCCCN2CCCC2)cc1 [Example 35, 2-Cyclopentyloxymethyl-1-[4-(3-pyrrolidin-1-ylpropoxy)phenyl]-1H-indole]"
6,< 0.01,"Cc1cc2ccccc2n1-c1ccc(OCCCN2CCC[C@H]2C)cc1 [Example 3, 2-Methyl-1-{4-[3-(2R-methylpyrrolidin-1-yl)propoxy]phenyl}-1H-indole]"
7,< 0.01,"CC(C)CNC(=O)c1cc2ccccc2n1-c1ccc(OCCCN2CCC[C@H]2C)cc1 [Example 27, 1-{4-[3-(2R-Methylpyrrolidin-1-yl)propoxy]phenyl}-1H-indole-2-carboxylic acid isobutylamide]"
8,< 0.01,"c1ccc2c(c1)cc(C1CC1)n2C1CCC(OCCCN2CCCC2)CC1 (single isomer, unassigned) [Example 39, 2-Cyclopropyl-1-[4-(3-pyrrolidin-1-ylpropoxy)cyclohexyl]-1H-indole]"
9,< 0.01,"CCCc1cc2ccccc2n1-c1ccc(OCCCN2CCCC2)cc1 [Example 38, 2-Propyl-1-[4-(3-pyrrolidin-1-ylpropoxy)phenyl]-1H-indole]"
10,< 0.01,"C[C@@H]1CCCN1CCCOc1ccc(-n2c(C(=O)NC3CCC3)cc3ccccc32)cc1 [Example 19, 1-{4-[3-(2R-Methylpyrrolidin-1-yl)propoxy]phenyl}-1H-indole-2-carboxylic acid cyclobutylamide]"
11,< 0.01,"CCCCNC(=O)c1cc2ccccc2n1-c1ccc(OCCCN2CCC[C@H]2C)cc1 [Example 26, 1-{4-[3-(2R-Methylpyrrolidin-1-yl)propoxy]phenyl}-1H-indole-2-carboxylic acid butylamide]"
12,< 0.01,"CC(C)OCc1cc2ccccc2n1-c1ccc(OCCCN2CCCC2)cc1 [Example 34, 2-Isopropoxymethyl-1-[4-(3-pyrrolidin-1-ylpropoxy)phenyl]-1H-indole]"
13,< 0.1,"C[C@@H]1CCCN1CCCOc1ccc(-n2c(C(=O)NC3CCCCCC3)cc3ccccc32)cc1 [Example 22, 1-{4-[3-(2R-Methylpyrrolidin-1-yl)propoxy]phenyl}-1H-indole-2-carboxylic acid cycloheptylamide]"
14,< 0.01,"COCc1cc2ccccc2n1-c1ccc(OCCCN2CCCC2)cc1 [Example 32, 2-Methoxymethyl-1-[4-(3-pyrrolidin-1-ylpropoxy)phenyl]-1H-indole]"
15,< 0.01,"COCc1cc2cc(F)ccc2n1-c1ccc(OCCCN2CCCC2)cc1 [Example 44, 5-Fluoro-2-methoxymethyl-1-[4-(3-pyrrolidin-1-ylpropoxy)phenyl]-1H-indole]"
16,< 0.01,"c1ccc2c(c1)cc(COC1CCCCC1)n2-c1ccc(OCCCN2CCCC2)cc1 [Example 33, 2-Cyclohexyloxymethyl-1-[4-(3-pyrrolidin-1-ylpropoxy)phenyl]-1H-indole]"

# The remaining lines, values behind:
row,Structure (SMILES),Ki [µM]
1,"Cc1cc2ccccc2n1-c1ccc(OCCCN2CCCCC2)cc1 [Example 2, 2-Methyl-1-[4-(3-piperidin-1-ylpropoxy)phenyl]-1H-indole]",< 0.01
2,"COc1ccc2c(c1)cc(C(=O)N1CCCC1)n2-c1ccc(OCCCN2CCC[C@H]2C)cc1 [Example 18, (5-Methoxy-1-{4-[3-(2R-methylpyrrolidin-1-yl)propoxy]phenyl}-1H-indol-2-yl)pyrrolidin-1-ylmethanone]",< 0.01
3,"C[C@@H]1CCCN1CCCOc1ccc(-n2c(C(=O)N3CCOCC3)cc3ccccc32)cc1 [Example 25, (1-{4-[3-(2R-Methylpyrrolidin-1-yl)propoxy]phenyl}-1H-indol-2-yl)morpholin-4-ylmethanone]",< 0.01
4,"OCCc1cc2ccccc2n1-c1ccc(OCCCN2CCCC2)cc1 [Example 41, 2-{1-[4-(3-Pyrrolidin-1-ylpropoxy)phenyl]-1H-indol-2-yl}ethanol]",< 0.01
5,"C[C@@H]1CCCN1CCCOc1ccc(-n2c(C(=O)NCC3CCCCC3)cc3ccccc32)cc1 [Example 28, 1-{4-[3-(2R-Methylpyrrolidin-1-yl)propoxy]phenyl}-1H-indole-2-carboxylic acid cyclohexylmethylamide]",< 0.01
6,"C[C@@H]1CCCN1CCCOc1ccc(-n2c(C(=O)NC3CCCCC3)cc3ccccc32)cc1 [Example 21, 1-{4-[3-(2R-Methylpyrrolidin-1-yl)propoxy]phenyl}-1H-indole-2-carboxylic acid cyclohexylamide]",< 0.1
7,"C[C@@H]1CCCN1CCCOc1ccc(-n2c(C(=O)NC3CCCC3)cc3ccccc32)cc1 [Example 20, 1-{4-[3-(2R-Methylpyrrolidin-1-yl)propoxy]phenyl}-1H-indole-2-carboxylic acid cyclopentylamide]",< 0.01
8,"COc1ccc2c(c1)cc(C(=O)NC1CCCCC1)n2-c1ccc(OCCCN2CCC[C@H]2C)cc1 [Example 29, 5-Methoxy-1-{4-[3-(2R-methylpyrrolidin-1-yl)propoxy]phenyl}-1H-indole-2-carboxylic acid cyclohexylamide]",< 0.01
9,"Cc1cc2ccccc2n1-c1ccc(OCCCN2CCCC2)cc1 [Example 1, 2-Methyl-1-[4-(3-pyrrolidin-1-ylpropoxy)phenyl]-1H-indole]",< 0.01
10,"Cc1cc2cc(F)ccc2n1-c1ccc(OCCCN2CCCC2)cc1 [Example 13, 2-Methyl-5-fluoro-1-[4-(3-pyrrolidin-1-ylpropoxy)phenyl]-1H-indole]",< 0.01
11,"C[C@@H]1CCCN1CCCOc1ccc(-n2c(C(=O)N3CCCCC3)cc3ccccc32)cc1 [Example 24, (1-{4-[3-(2R-Methylpyrrolidin-1-yl)propoxy]phenyl}-1H-indol-2-yl)piperidin-1-ylmethanone]",< 0.01
12,"COCc1cc2cc(C)ccc2n1-c1ccc(OCCCN2CCCC2)cc1 [Example 43, 5-Methyl-2-methoxymethyl-1-[4-(3-pyrrolidin-1-ylpropoxy)phenyl]-1H-indole]",< 0.01
13,"COCCc1cc2ccccc2n1-c1ccc(OCCCN2CCCC2)cc1 [Example 40, 2-(2-Methoxyethyl)-1-[4-(3-pyrrolidin-1-ylpropoxy)phenyl]-1H-indole]",< 0.01
14,"COCc1cc2cc(OC)ccc2n1-c1ccc(OCCCN2CCCC2)cc1 [Example 42, 5-Methoxy-2-methoxymethyl-1-[4-(3-pyrrolidin-1-ylpropoxy)phenyl]-1H-indole]",< 0.01
15,"C[C@@H]1CCCN1CCCOc1ccc(-n2c(C(=O)N3CCCC3)cc3ccccc32)cc1 [Example 23, (1-{4-[3-(2R-Methylpyrrolidin-1-yl)propoxy]phenyl}-1H-indol-2-yl)pyrrolidin-1-ylmethanone]",< 0.01
16,"OCc1cc2ccccc2n1-c1ccc(OCCCN2CCCC2)cc1 [Example 31, {1-[4-(3-Pyrrolidin-1-ylpropoxy)phenyl]-1H-indol-2-yl}methanol]",< 0.01
